Measured values as given in patent publication US11234960B2, “Compositions and methods for improving mitochondrial function and treating neurodegenerative diseases and cognitive disorders” (Amazentis SA, priority 2010, dated 2022).

Legend:
[1] = test system: PC-12 cells; assay: Neurite outgrowth in NGF-differentiated PC-12 cells; format: cell-based, rat; conditions: 0.5 μM; for percent of cells showing significant outgrowth (>20 μm), increase vs differentiated cells: 72 h (FIG. 8); for number of processes, increase: 72 h, differentiated PC-12 cells (FIG. 9)
Method: The ellagitannins and their metabolites tested in the assays were synthesized or purchased from suppliers which included Funakoshi, Sigma, and Chemos. Stock solutions were aliquoted and stored at −20° C.
PC-12 cells (ATCC CRL-1721) were cultured at 37° C., 5% CO2 in poly L-lysine-coated culture flasks in complete culture medium (RPMI 1640+10% heat-inactivated horse serum+5% fetal bovine serum).
Cell differentiation was performed in culture flasks 24 h after plating, in complete medium supplemented with 100 ng/mL NGF (2.5 S NGF, Invitrogen). The NGF-supplemented medium was renewed every third day, and differentiation was induced over an 8-day period.
All compounds to be tested were prepared just before the experiment as a 50 mM stock solution in dimethylsulfoxide (DMSO). The final DMSO concentration was 0.1% in the medium of all experimental groups.
For neurite outgrowth measurements, differentiated cells were washed with phosphate-buffered saline (PBS), collected after detachment and replated at a density of 5,000 cells/well (biocoat imaging 96 well plate) in complete medium supplemented with 100 ng/mL NGF, with or without 10 μM SP600125 (negative control), 1 mM dbcAMP (positive control), or tested compound at 5×10^−7 M. In the undifferentiated control group, no NGF was added after replating.
After 72 h in culture, PC-12 cells were washed with PBS and fixed in 1% paraformaldehyde solution for 20 minutes. After 3 washes with PBS, immunofluorescence labeling was performed with Texas Red Maleimide probe, which reacts with thiol groups of cysteine residues of proteins, permitting the visualization of the entire cell morphology, including neurites.
Immunofluorescence analysis was performed in automated confocal microscopy. Images were acquired with a BD pathway 855 system, under X20 objective with 8×8 field montage. Neurite outgrowth was then measured from acquired images with the neurite module of Metamorph® software. Total and mean outgrowth, total and mean number of processes per cell, and total and percentage of cells with extensive outgrowth (defined as outgrowth longer than 20 μm) were analyzed.

[2] = test system: high fat diet (HFD)-fed C57BL6/J mice; assay: Body weight and body composition (EchoMRI) in high-fat diet fed mice; format: in vivo; conditions: for body weight gain: HFD-fed mice vs control HFD-fed mice, PE 140 mkd polyphenols gavage (FIG. 17A); for body weight gain / percentage fat mass (EchoMRI): urolithin A 55 mkd food admix, punicalagin 90 mkd gavage; for percentage of lean mass (EchoMRI) / percentage fat mass (EchoMRI): HFD-fed mice; for percentage of lean mass (EchoMRI): 5 weeks of treatment (FIG. 17C); for percentage fat mass (EchoMRI): 5 weeks of treatment, PE 140 mkd gavage (FIG. 17B)
Source text: Male C57BL6/J mice were purchased from Charles River Laboratory (L'Arbresle, France) at the age of 7 weeks and acclimatized to the animal facility for 2 weeks before initiation of experiments. Mice were housed in groups of 5 in standard housing conditions, with a 12 hr light-dark cycle and free access to food and water. Beginning at 9 weeks of age, mice were fed a high-fat diet (HFD) (60% kcal from fat; D12492; Research Diets Inc., New Brunswick, N.J., USA) for fourteen weeks. Body weight was monitored weekly.
Body composition was monitored by EchoMRI (Echo Medical Systems, Houston, Tex., USA) 5 weeks after the initiation of the treatment for high-fat diet fed mice and 2 weeks after the initiation of the treatment for chow diet fed mice. Animals were placed individually into a plastic cylinder and then introduced into an EchoMRI system for about 2 min for body composition scanning (lean and fat mass).

[3] = test system: HFD-fed C57BL6/J mice; assay: Indirect calorimetry (CLAMS) in HFD-fed mice; format: in vivo; conditions: for respiratory exchange ratio (RER): HFD-fed mice (FIGS. 22A, 22B); for energy expenditure (oxygen consumption, VO2): HFD-fed mice, 8 weeks after initiation of treatment (FIGS. 20A, 20B)
Method: Mice in different treatment groups were administered (i) urolithin A mixed with food (food admix) to reach a dosing of 55 mg/kg body weight/day (mkd); (ii) ellagic acid mixed with food (food admix) to reach a dosing of 75 mkd; (iii) punicalagin (gavage) to reach a dosing of 90 mkd; or (iv) pomegranate extract (PE) (gavage) to reach a dosing of 140 mkd of total polyphenols. […] For animals treated by gavage, gavage was performed daily (7 days/week) between 8:00 and 10:00 a.m.; compounds were mixed with saline solution (0.9% NaCl) and provided at a final volume of 5 mL/kg of body weight.

[4] = test system: HFD-fed C57BL6/J mice; assay: Plasma biochemistry in HFD-fed mice; format: in vivo; conditions: HFD-fed mice treated for 14 weeks; for plasma levels of triglycerides: fasted 12 h (FIG. 23A); for plasma levels of free fatty acids: fasted 12 h (FIG. 23B)
Method: In addition, plasma biochemistry was performed 14 weeks after the initiation of the treatment using a standard automated clinical chemistry analyzer (Dimension Xpand, SIEMENS). Animals were fasted for 12 h (from 8 pm to 8 am) before blood collection. Approximately 500 μL of blood was collected from vena cava in anesthetized animals under isofluorane anesthesia. Blood was collected in heparinized tubes and immediately placed on wet ice. Plasma was prepared by centrifugation (1500×g, 15 min, 4° C.). Plasma samples were then transferred in clean 1.5 mL microtubes and stored at −80° C. until biochemical measurements were performed on a standard automated clinical chemistry analyzer (Dimension Xpand, SIEMENS) using corresponding kits.

[5] = test system: C57BL6/J mice fed standard chow diet; assay: Indirect calorimetry (CLAMS) in standard chow diet fed mice; format: in vivo; conditions: for respiratory exchange ratio (RER): chow diet fed mice (FIGS. 21A, 21B); for energy expenditure (oxygen consumption, VO2): standard chow-fed mice, 2 weeks of treatment (FIGS. 19A, 19B)
Method: Mice in different treatment groups were administered (i) urolithin A mixed with food (food admix) to reach a dosing of 55 mg/kg body weight/day (mkd); (ii) ellagic acid mixed with food (food admix) to reach a dosing of 75 mkd; (iii) punicalagin (gavage) to reach a dosing of 90 mkd; or (iv) pomegranate extract (PE) (gavage) to reach a dosing of 140 mkd of total polyphenols. A typical pomegranate extract used in these experiments had the following composition: polyphenols, 140 mkd; punicalagin, 13.1 mkd; and ellagic acid, 13.2 mkd. For animals treated by gavage, gavage was performed daily (7 days/week) between 8:00 and 10:00 a.m.; compounds were mixed with saline solution (0.9% NaCl) and provided at a final volume of 5 mL/kg of body weight. Mice in high-fat control groups were fed with the same diet as the experimental animals. Mice in corresponding different control groups were administered either high-fat diet alone or high-fat diet plus daily gavage with vehicle (saline). Another control group of mice were fed standard chow diet alone.
Male C57BL6/J mice were grouped and treated as described in Example 7. In addition, however, basal energy expenditure of mice was measured by indirect calorimetry oxygen consumption, carbon dioxide production, and respiratory exchange ratio), 8 weeks after the initiation of treatment for the HFD-fed mice and 2 weeks after the initiation of treatment for standard show diet-fed mice, using the Comprehensive Laboratory Animal Monitoring System (CLAMS; Columbus Instruments, Columbus, Ohio, USA). Animals were first acclimatized for 22 h to CLAMS cages (room temperature 22° C.±1° C.) starting between 11 to 12 am. Then measurement was performed for at least 20 h in the same condition. Measurement included an entire dark cycle. Parameters measured during CLAMS were the following: (i) Oxygen consumption (VO2 in mL/kg/h): VO2 is directly correlated to energy expenditure; (ii) Carbon dioxide production (VCO2 in mL/kg/h); and (iii) Respiratory Exchange Ratio (RER): VCO2/VO2: RER is an indicator of the use of energy substrate. In a steady state, RER is equivalent to the Respiratory Quotient (RQ). Pure carbohydrate use gives RER=1, whereas pure fat burning yields an RER=0.7. A mixed diet gives a RER=0.85.
As stated above, in addition to oxygen consumption, indirect calorimetry also monitors carbon dioxide production. The ratio between carbon dioxide production (VCO2) and oxygen consumption (VO2) is called Respiratory Exchange Ratio (RER). RER is an excellent indicator of the use of energy substrates. In a steady state, RER is equivalent to the Respiratory Quotient (RQ). […]

Compound	percent of cells showing significant outgrowth (>20 μm), increase vs differentiated cells [1]	number of processes, increase [1]	body weight gain [2]	percentage of lean mass (EchoMRI) [2]	percentage fat mass (EchoMRI) [2]	respiratory exchange ratio (RER) [3]	energy expenditure (oxygen consumption, VO2) [3]	plasma levels of triglycerides [4]	plasma levels of free fatty acids [4]	respiratory exchange ratio (RER) [5]	energy expenditure (oxygen consumption, VO2) [5]
O=C1O[C@H]2[C@@H]3OC(=O)c4cc(O)c(O)c(O)c4-c4c(O)c(O)c5oc(=O)c6c(c(O)c(O)c7oc(=O)c4c5c76)-c4c(cc(O)c(O)c4O)C(=O)OC[C@H]3OC(O)[C@@H]2OC(=O)c2cc(O)c(O)c(O)c2-c2c1cc(O)c(O)c2O (mixture of isomers) [punicalagin, 2,3 hexahydroxydiphenoyl-4,6-gallagylglucose]	> 26%	26.3%	strong reduction of body weight gain	statistically significant increase in the percentage of lean mass	significantly reduced	significantly decreased RER	increased energy expenditure	statistically significant improvement	statistically significant improvement	–	–
O=c1oc2c(O)c(O)cc3c(=O)oc4c(O)c(O)cc1c4c23 [ellagic acid]	–	–	–	–	–	–	–	–	–	significantly decreased RER	increased energy expenditure
O=c1oc2cc(O)ccc2c2ccc(O)cc12 [urolithin A, 3,8-Dihydroxydibenzo-α-pyrone]	26%	15.7%	strong reduction of body weight gain	statistically significant increase in the percentage of lean mass	significantly reduced	significantly decreased RER	increased energy expenditure	statistically significant improvement	statistically significant improvement	significantly decreased RER	increased energy expenditure
